In PMC1762332, “Catalases Are NAD(P)H-Dependent Tellurite Reductases” (PLoS ONE, 2006):

Experiments:
[1] = target: T1, S. epidermidis CH katA (catalase) (Staphylococcus epidermidis, UniProt Q2PUJ9); assay: in-gel tellurite reductase activity after native PAGE of recombinant E. coli extract; format: biochemical; conditions: 1 mM K2TeO3, 1 mM NADH, 1 mM 2-mercaptoethanol, potassium phosphate pH 7, 37 °C, 12 h
T1 construct: katA coding region (1,515 bp) in pBAD (plasmid pCAT), expressed in E. coli Top10, extract; about 60 kDa subunit; homolog of SE1016 of ATCC12228

[2] = target: T2, E. coli katG (HPI catalase) (Escherichia coli, UniProt P13029); assay: in-gel tellurite reductase activity after native PAGE of E. coli extract; absent in katG mutant; format: biochemical; conditions: 1 mM K2TeO3, 1 mM NADH, 1 mM 2-mercaptoethanol, potassium phosphate pH 7, 37 °C, 12 h
T2 construct: native enzyme in extract of E. coli (Top10 with pBAD vector), resolved on native gel; tetramer; band absent in katG mutant
T2 sequence (P13029 whole entry): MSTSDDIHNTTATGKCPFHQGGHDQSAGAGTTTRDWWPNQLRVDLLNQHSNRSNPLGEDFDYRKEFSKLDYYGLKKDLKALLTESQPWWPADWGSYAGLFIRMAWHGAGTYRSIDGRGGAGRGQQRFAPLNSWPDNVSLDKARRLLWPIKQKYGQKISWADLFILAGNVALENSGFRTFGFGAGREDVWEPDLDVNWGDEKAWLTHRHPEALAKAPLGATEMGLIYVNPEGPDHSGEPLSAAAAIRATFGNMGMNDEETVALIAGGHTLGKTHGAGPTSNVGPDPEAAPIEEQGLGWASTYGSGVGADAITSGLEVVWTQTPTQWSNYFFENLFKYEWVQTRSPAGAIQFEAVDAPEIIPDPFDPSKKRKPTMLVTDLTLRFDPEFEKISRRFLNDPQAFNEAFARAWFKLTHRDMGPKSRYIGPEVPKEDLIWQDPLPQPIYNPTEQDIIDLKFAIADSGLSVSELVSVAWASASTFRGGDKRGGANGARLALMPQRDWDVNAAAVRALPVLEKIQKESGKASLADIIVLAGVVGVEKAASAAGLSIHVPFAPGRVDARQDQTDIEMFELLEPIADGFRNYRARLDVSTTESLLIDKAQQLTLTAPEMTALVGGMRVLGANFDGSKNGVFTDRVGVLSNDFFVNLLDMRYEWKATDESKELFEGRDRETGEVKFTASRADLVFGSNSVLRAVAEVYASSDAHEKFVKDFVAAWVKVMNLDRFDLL

T1 sequence (Q2PUJ9 3-504): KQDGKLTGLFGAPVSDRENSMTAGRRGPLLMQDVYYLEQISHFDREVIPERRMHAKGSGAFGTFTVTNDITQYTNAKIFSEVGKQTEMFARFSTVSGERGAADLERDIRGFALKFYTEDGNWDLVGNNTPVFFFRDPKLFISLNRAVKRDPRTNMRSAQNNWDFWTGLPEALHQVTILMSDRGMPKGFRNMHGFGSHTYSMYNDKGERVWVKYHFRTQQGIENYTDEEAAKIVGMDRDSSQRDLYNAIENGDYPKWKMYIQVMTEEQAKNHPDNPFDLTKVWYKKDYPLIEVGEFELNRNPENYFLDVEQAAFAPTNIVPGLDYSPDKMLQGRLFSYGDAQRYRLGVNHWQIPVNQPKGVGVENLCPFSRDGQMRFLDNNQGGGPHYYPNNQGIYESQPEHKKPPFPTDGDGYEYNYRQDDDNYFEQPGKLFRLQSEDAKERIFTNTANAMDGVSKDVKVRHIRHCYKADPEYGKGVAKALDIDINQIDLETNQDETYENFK

With O=[Te](O)O [tellurite] the “in-gel tellurite reductase activity after native PAGE of recombinant E. coli ext” value [1] was “tellurite reductase activities of catalase are expressed at more than-four fold higher levels” and the “in-gel tellurite reductase activity after native PAGE of E. coli extract; absent” value [2] was “a barely detectable tellurite reductase activity”.
